“And” between values parts separate entries of the source, which are not always exact repeats. Identical values can stand only once.

Assay type in all cases: physicochemical
Data set [1] in a line: ^1O2 quantum yield, photooxidation of DMA (indirect method). The settings on record: consumption of dimethylanthracene, Rose Bengal standard, air equilibrated acetonitrile. The protocol:
Solutions of 9,10-dimethylanthracene (DMA, 50 μM) and photosensitizers (compound 3-10) in air equilibrated acetonitrile were irradiated in 10 mm path length quartz cell (3 ml) with a Nd:Yag laser exciting at 532 nm. Laser excitation was performed at 10 Hz, providing one laser output for every discharge of the flashlamp. An irradiation time of 1 s is equivalent to 10 laser pulses. The energy of each pulse was 10 mJ. The kinetics of DMA photooxidation were studied by following the decrease of the absorbance at λ=377 nm. The observed rate constant (kobs) was obtained by a linear least-squares fit of the semilogarithmic plot of ln [DMA]0/[DMA] (see FIG. 14). Quantum yields of ^1O2 production (φΔ^I) were calculated comparing the kobs=kq [^1O2] for the corresponding photosensitizer with that for Rose Bengal, which was used as a reference (φΔ=0.54).^1 Measurements of the sample and the reference under the same conditions afforded φΔ^I for compounds (3-10) by direct comparison of the slope in the linear region of the plots.
For the indirect detection of ^1O2, it is possible to determine the kq value considering that the production of ^1O2 is constant compare with the initial concentration of DMA. According to these, a pseudo first-order kinetic for this reaction is proposed (equations 2 to 5): […]
The conversion of DMA followed pseudo-first order kinetics with the different photosensitizers (see FIG. 14). From equation 5, it was possible to determine kobs and ^1O2.

Data set [2] in a line: Electrochemical studies (cyclic voltammetry). Details: E^oB^+·/B (reversible oxidation potential): unit not given here. The settings on record: vs ferrocene, acetonitrile. The protocol: Electrochemical measurements were performed using a three-electrode system. The working electrode was a Pt wire, a Pt mesh wire was used as the counter electrode, and a Ag/AgCl electrode was used as the reference. A 0.1 M solution of tetrabutylammonium hexafluorophosphate in dry acetonitrile was used as the electrolyte solvent in which the compounds were dissolved to 1 mM or to saturation when the latter occurred before reaching a 1 mM concentration. Concentration was determined from their absorption and calculated extinction coefficient. Solutions also contained ferrocene with a concentration of 1 mM as an internal standard. The solutions were equilibrated with argon, and all measurements were conducted under inert atmosphere, with a minimum scan rate of 0.2 V s^−1. When the acquired cyclic voltammograms were not reversible the scan rate was increased up to 1 V s^−1. Formal redox potentials were calculated from the midpoint of the cathodic and anodic peak potentials observed in the cyclic voltammograms. All values were reported vs ferrocene, with the oxidation of ferrocene measured and corrected to zero for all experiments.

The nature of data set [3]: Absorption and steady-state fluorescence, fluorescence quantum yield in acetonitrile. The note with it: for abs λmax / em λmax / Φf (fluorescence quantum yield) / ε (extinction coefficient): acetonitrile, room temperature; for drop in φf following inclusion of I or Br atoms: relative to unsubstituted analogue (1 for 3 and 4; 2 for 5 and 6). The protocol:
Absorption spectra were recorded using a Hitachi U-2800 UV-vis-NIR spectrophotometer. Luminescence spectra were recorded using a PTI QuantaMaster spectrofluorimeter using 10×10 mm quartz cuvettes and corrected for detector sensitivity.
The steady-state fluorescence spectra were recorded between 500-800 nm (depending on each compound) upon exciting at the wavelength of the absorbance maxima. The excitation and emission slits were tuned according to the fluorescence quantum yield of each BODIPY (i.e. for compound 7 excitation slits were 5 nm and for compound 4 we used 2 nm). Fluorescence was recorded every 1 nm using 0.1 s integration time. For the Fluorescence lifetime measurements, the excitation rate was 10 MHz, and the detection frequency was less than 100 kHz. Photons were collected at the magic angle. The fluorescence decay traces were fit using FluoFit (Picoquant) software. For steady-state and time-resolved fluorescence measurements a quartz cuvette with a 10 mm path length was used and all the solutions were prepared in air equilibrated acetonitrile.
Quantum yields of fluorescence were measured using PM605 in acetonitrile as a reference. Absorption and emission spectra of PM605 and the dye of interest were measured in acetonitrile at five different concentrations. The integrated intensity versus absorbance were then plotted and fitted linearly. Relative quantum yields of fluorescence for the unknown with respect to the standard were obtained from equation 1, where φ, Δ, and n refer, respectively, to the quantum yield, the slope obtained from the above-mentioned plot, and the solvent refractive index for the unknown (x) or standard (st).

Data set [4] can be described thus: Time-resolved fluorescence (fluorescence lifetime, TCSPC). The note with it: for increase in kdec upon halogen substitution: 4 vs 1, 6 vs 2, 3 vs 1, 5 vs 2; for kdec (fluorescence decay rate constant) / knr (non-radiative decay rate constant, (1−φf)×kdec) / krad (radiative rate constant, φf×kdec): acetonitrile, room temperature. As to the method:
Fluorescence lifetime measurements were carried out using a Picoquant Fluotime 200 time correlated single photon counting (TCSPC) setup employing an LDH-P-C-470 picosecond diode laser (Picoquant) with an excitation wavelength at 466 nm as the excitation source. The laser was controlled by a PDL 800 B picosecond laser driver from Picoquant. ^1HNMR spectra were recorded on a Bruker AV 400 instrument at 400 MHz. ^13CNMR spectra were recorder on a Varian VNMRS 500 instrument at 125 MHz. ESI mass spectra were measured on a Bruker maXis impact. Laser Flash Photolysis (LFP) experiments were carried out in a commercially available Luzchem 212 LFP setup provided with a Tektronix TDS 2000 digitizer for signal capture. A Nd:Yag laser (Continuum model Surelite I-10 using a second harmonic generators, model number SL-SHG-T1) was used for excitation at a wavelength of 532 nm. Phosphorescence experiments were recorded using a Cary Eclipse Fluorescence Spectrophotometer. Singlet Oxygen phosphorescence was recorded with a Hamamatsu NIR detector (peltier cooled at −62.8° C. operating at 800 V, coupled to a grating monochromator) upon excitation with a 532 nm Nd:YAG laser. A customized Luzchem Research LFP-111 system was employed to collect and process the data. The steady-state fluorescence spectra were recorded between 500-800 nm (depending on each compound) upon exciting at the wavelength of the absorbance maxima. The excitation and emission slits were tuned according to the fluorescence quantum yield of each BODIPY (i.e. for compound 7 excitation slits were 5 nm and for compound 4 we used 2 nm). Fluorescence was recorded every 1 nm using 0.1 s integration time. For the Fluorescence lifetime measurements, the excitation rate was 10 MHz, and the detection frequency was less than 100 kHz. Photons were collected at the magic angle. The fluorescence decay traces were fit using FluoFit (Picoquant) software. For steady-state and time-resolved fluorescence measurements a quartz cuvette with a 10 mm path length was used and all the solutions were prepared in air equilibrated acetonitrile.

On to `CC(=O)OCC1=C2C(C)=C(Br)C(C)=[N+]2[B-](F)(F)n2c(C)c(Br)c(C)c21` [Compound 6, 8-Acetoxymethyl-2,6-dibromo-1,3,5,7-tetramethyl Pyrromethene Fluoroborate], for which, in data set [1], the “ΦΔ^I (singlet oxygen quantum yield, indirect)” value is 0.79 ± 0.02. Moreover, in data set [2], the “E^oB^+·/B (reversible oxidation potential)” value (from here on “E^oB^+·/B”) is 0.94 and the “E^opc (cathodic peak potential)” value is recorded as −1.13. In addition, in data set [3], the “E00 (HOMO-LUMO gap from intercept of normalized absorption and emission spectra)” value was 2.25 eV; the “abs λmax” value came out at 543 nm; the “em λmax” value amounted to 562 nm; the “Φf (fluorescence quantum yield)” value is on record as 0.14 ± 0.02. In addition, in data set [3], the “ε (extinction coefficient)” value was found to be 81000 M⁻¹ cm⁻¹ and the “drop in φf following inclusion of I or Br atoms” value (from here on “drop in φf following inclusion”) is listed as roughly 6 fold. Also, in data set [4], the “increase in kdec upon halogen substitution” value was 4.5 fold; the “kdec (fluorescence decay rate constant)” value is listed as 66.7 ± 0.3 × 10^7 s^−1; the “knr (non-radiative decay rate constant, (1−φf)×kdec)” value was 57.4 ± 0.2 × 10^7 s^−1; the “krad (radiative rate constant, φf×kdec)” value is given as 9.3 ± 0.1 × 10^7 s^−1.

`CC1=C(Br)C(C)=[N+]2C1=C(C)c1c(C)c(Br)c(C)n1[B-]2(F)F` [Compound 4, 2,6-dibromo-1,3,5,7,8-pentamethyl-pyrromethene fluoroborate]: in data set [1], the “ΦΔ^I (singlet oxygen quantum yield, indirect)” value is 0.64 ± 0.03. In addition, in data set [2], the “E^oB^+·/B” value is 0.89. Also, in data set [3], the “E00 (HOMO-LUMO gap from intercept of normalized absorption and emission spectra)” value is given as 2.37 eV; the “abs λmax” value came to 515 nm; the “em λmax” value is 535 nm; the “Φf (fluorescence quantum yield)” value is 0.20 and 0.20 ± 0.02. For the same molecule, in data set [3], the “ε (extinction coefficient)” value worked out at 79000 M⁻¹ cm⁻¹ and the “drop in φf following inclusion” value is on record as roughly 4 fold. In data set [4], the “increase in kdec upon halogen substitution” value was found to be 3.1 fold; the “kdec (fluorescence decay rate constant)” value is 55.3 ± 0.2 × 10^7 s^−1; the “knr (non-radiative decay rate constant, (1−φf)×kdec)” value is 44.2 ± 0.2 × 10^7 s^−1; the “krad (radiative rate constant, φf×kdec)” value is 11.0 ± 0.2 × 10^7 s^−1.

Turning to `CC1=C(I)C(C)=[N+]2C1=C(C)c1c(C)c(I)c(C)n1[B-]2(F)F` [Compound 3, 2,6-diiodo-1,3,5,7,8-pentamethyl-pyrromethene fluoroborate], the “ΦΔ^I (singlet oxygen quantum yield, indirect)” value in data set [1] is recorded as 0.75 ± 0.04. Moreover, in data set [2], the “E^oB^+·/B” value turned out to be 0.88. In data set [3], the “E00 (HOMO-LUMO gap from intercept of normalized absorption and emission spectra)” value is given as 2.33 eV; the “abs λmax” value is 521 nm; the “em λmax” value was 545 nm; the “Φf (fluorescence quantum yield)” value turned out to be 0.03 ± 0.01. For the same molecule, in data set [3], the “ε (extinction coefficient)” value was 83000 M⁻¹ cm⁻¹ and the “drop in φf following inclusion” value amounted to 27 fold. Also, in data set [4], the “increase in kdec upon halogen substitution” value is on record as “ca. 27 fold”; the “kdec (fluorescence decay rate constant)” value was 476.2 ± 0.7 × 10^7 s^−1; the “knr (non-radiative decay rate constant, (1−φf)×kdec)” value is listed as 463.0 ± 0.7 × 10^7 s^−1; the “krad (radiative rate constant, φf×kdec)” value is 13.1 ± 0.2 × 10^7 s^−1.

As for `CC(=O)OCC1=C2C(C)=C(I)C(C)=[N+]2[B-](F)(F)n2c(C)c(I)c(C)c21` [Compound 5, 8-Acetoxymethyl-2,6-diiodo-1,3,5,7-tetramethyl Pyrromethene Fluoroborate], in data set [1], the “ΦΔ^I (singlet oxygen quantum yield, indirect)” value came out at 0.95 ± 0.03. In data set [2], the “E^oB^+·/B” value turned out to be 0.91 and the “E^opc (cathodic peak potential)” value was −1.14. For the same molecule, in data set [3], the “E00 (HOMO-LUMO gap from intercept of normalized absorption and emission spectra)” value came out at 2.21 eV; the “abs λmax” value turned out to be 550 nm; the “em λmax” value is 572 nm; the “Φf (fluorescence quantum yield)” value was 0.02 ± 0.01. For the same molecule, in data set [3], the “ε (extinction coefficient)” value was found to be 96000 M⁻¹ cm⁻¹ and the “drop in φf following inclusion” value was “ca. 44 fold”. Further, in data set [4], the “increase in kdec upon halogen substitution” value was roughly 42 fold; the “kdec (fluorescence decay rate constant)” value is given as 625.0 ± 0.7 × 10^7 s^−1; the “knr (non-radiative decay rate constant, (1−φf)×kdec)” value was 582.0 ± 0.7 × 10^7 s^−1; the “krad (radiative rate constant, φf×kdec)” value is recorded as 12.5 ± 0.2 × 10^7 s^−1.

Regarding `CC1=C(Br)C(C)=[N+]2C1=C(CC1(C)CCc3c(C)c(O)c(C)c(C)c3O1)c1c(C)c(Br)c(C)n1[B-]2(F)F` (stereo not shown) [Compound 7, 8-((6-Hydroxy-2,5,7,8-tetramethylchroman-2-yl)-methyl)-2,6-dibromo-1,3,5,7-tetramethyl], the “drop in φf caused by the trap segment” value in data set [3] (7 compared to reference 4, 8 compared to 5) is “ca. 25 fold”. Besides, in data set [3], the “abs λmax” value is reported as 532 nm, the “em λmax” value was 557.4 nm and the “ε (extinction coefficient)” value was determined as 56000 M⁻¹ cm⁻¹. The “intramolecular electron transfer rate constant from the singlet state (keT)” value in data set [3] (based on φf≤0.008) was no less than 1e+10 s⁻¹.
